Test results taken from PubChem BioAssay AID1963968 (Molecular Pharmacology Branch, DTP, NCI, 2024).
“And” between values parts separate entries of the source, which are not always exact repeats. Identical values can stand only once.

Test system: 945468-187-T-J3-PDC spheroids with HUVEC/MSC, viability
Assay: Anticancer human tumor 945468-187-T-J3-PDC patient-derived rectal carcinoma cell line growth inhibition [PI3K]
Details: for viability, T/C: stronger effect = lower value
Summary of the method: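 Stroma-containing spheroids: tumor line, pooled-donor HUVEC, hMSC. Treatments: targeted agents with PI3K inhibitors. Dosing: clinically relevant, half-log spacing, 10 microM ceiling without known Cmax. Read-out: cell viability.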

[1] = curve of first compound, second compound 0.00316 µM
[2] = curve of first compound, second compound 0.01 µM
[3] = curve of first compound, second compound 0.0316 µM
[4] = curve of first compound, second compound 0.1 µM
[5] = curve of first compound, second compound 0.316 µM
[6] = curve of first compound, second compound 1 µM
[7] = second compound 0.00316 µM, first compound 0.0316 µM
[8] = second compound 0.00316 µM, first compound 0.1 µM
[9] = second compound 0.00316 µM, first compound 0.316 µM
[10] = second compound 0.00316 µM, first compound 1 µM
[11] = second compound 0.01 µM, first compound 0.0316 µM
[12] = second compound 0.01 µM, first compound 0.1 µM
[13] = second compound 0.01 µM, first compound 0.316 µM
[14] = second compound 0.01 µM, first compound 1 µM
[15] = second compound 0.0316 µM, first compound 0.0316 µM
[16] = second compound 0.0316 µM, first compound 0.1 µM
[17] = second compound 0.0316 µM, first compound 0.316 µM
[18] = second compound 0.0316 µM, first compound 1 µM
[19] = second compound 0.1 µM, first compound 0.0316 µM
[20] = second compound 0.1 µM, first compound 0.1 µM
[21] = second compound 0.1 µM, first compound 0.316 µM
[22] = second compound 0.1 µM, first compound 1 µM
[23] = second compound 0.316 µM, first compound 0.0316 µM
[24] = second compound 0.316 µM, first compound 0.1 µM
[25] = second compound 0.316 µM, first compound 0.316 µM
[26] = second compound 0.316 µM, first compound 1 µM
[27] = second compound 1 µM, first compound 0.0316 µM
[28] = second compound 1 µM, first compound 0.1 µM
[29] = second compound 1 µM, first compound 0.316 µM
[30] = second compound 1 µM, first compound 1 µM
[31] = curve of first compound, second compound 3.16 µM
[32] = curve of first compound, second compound 10 µM
[33] = second compound 0.0316 µM, first compound 3.16 µM
[34] = second compound 0.0316 µM, first compound 10 µM
[35] = second compound 0.1 µM, first compound 3.16 µM
[36] = second compound 0.1 µM, first compound 10 µM
[37] = second compound 0.316 µM, first compound 3.16 µM
[38] = second compound 0.316 µM, first compound 10 µM
[39] = second compound 1 µM, first compound 3.16 µM
[40] = second compound 1 µM, first compound 10 µM
[41] = second compound 3.16 µM, first compound 0.0316 µM
[42] = second compound 3.16 µM, first compound 0.1 µM
[43] = second compound 3.16 µM, first compound 0.316 µM
[44] = second compound 3.16 µM, first compound 1 µM
[45] = second compound 3.16 µM, first compound 3.16 µM
[46] = second compound 3.16 µM, first compound 10 µM
[47] = second compound 10 µM, first compound 0.0316 µM
[48] = second compound 10 µM, first compound 0.1 µM
[49] = second compound 10 µM, first compound 0.316 µM
[50] = second compound 10 µM, first compound 1 µM
[51] = second compound 10 µM, first compound 3.16 µM
[52] = second compound 10 µM, first compound 10 µM
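Further: spheroids exposed to agents for 7 days before viability read.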
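Wherever viability, T/C is given: 100% = DMSO vehicle control viability.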

CCN1CCN(Cc2ccc(Nc3ncc(F)c(-c4cc(F)c5nc(C)n(C(C)C)c5c4)n3)nc2)CC1 + COc1c(OCCCN2CCOCC2)ccc2c3n(c(=NC(=O)c4cnc(N)nc4)nc12)CCN3
IC50 [1]: > 1 µM | IC50 [2]: 0.662 µM | IC50 [3]: 0.256 µM | IC50 [4]: 0.00532 µM | IC50 [5]: < 0.00316 µM | IC50 [6]: < 0.00316 µM | viability, T/C (second compound 0.00316 µM, first compound 0.00316 µM): 88.6% | viability, T/C (second compound 0.00316 µM, first compound 0.01 µM): 83.6% | viability, T/C [7]: 80.5% | viability, T/C [8]: 82.3% | viability, T/C [9]: 95.2% | viability, T/C [10]: 53.5% | viability, T/C (second compound 0.01 µM, first compound 0.00316 µM): 107% | viability, T/C (second compound 0.01 µM, first compound 0.01 µM): 82.3% | viability, T/C [11]: 110% | viability, T/C [12]: 89.8% | viability, T/C [13]: 79.4% | viability, T/C [14]: 33.8% | viability, T/C (second compound 0.0316 µM, first compound 0.00316 µM): 90.2% | viability, T/C (second compound 0.0316 µM, first compound 0.01 µM): 81.8% | viability, T/C [15]: 82.2% | viability, T/C [16]: 75.1% | viability, T/C [17]: 44.3% | viability, T/C [18]: 22.3% | viability, T/C (second compound 0.1 µM, first compound 0.00316 µM): 57% | viability, T/C (second compound 0.1 µM, first compound 0.01 µM): 41.3% | viability, T/C [19]: 30.7% | viability, T/C [20]: 24.1% | viability, T/C [21]: 18.2% | viability, T/C [22]: 17.9% | viability, T/C (second compound 0.316 µM, first compound 0.00316 µM): 25.4% | viability, T/C (second compound 0.316 µM, first compound 0.01 µM): 16.3% | viability, T/C [23]: 14.8% | viability, T/C [24]: 16.9% | viability, T/C [25]: 17.1% | viability, T/C [26]: 16.6% | viability, T/C (second compound 1 µM, first compound 0.00316 µM): 15.2% | viability, T/C (second compound 1 µM, first compound 0.01 µM): 16.1% | viability, T/C [27]: 13.6% | viability, T/C [28]: 16.8% | viability, T/C [29]: 19% | viability, T/C [30]: 16.4%

C#Cc1c(F)ccc2cc(O)cc(-c3ncc4c(N5CC6CCC(C5)N6)nc(OCC56CCCN5CC(F)C6)nc4c3F)c12 (stereo not drawn)
viability, T/C (compound 0.0316 µM): 96.4% [middle of 4 runs] | viability, T/C (compound 0.1 µM): 95.8% [middle of 4 runs] | viability, T/C (compound 0.316 µM): 98.2% [middle of 4 runs] | viability, T/C (compound 1 µM): 114% (2×) and 95.9% and 89.8% | viability, T/C (compound 3.16 µM): 125% [middle of 4 runs] | viability, T/C (compound 10 µM): 113% [middle of 4 runs] | IC50 (curve of compound): > 10 µM

C[C@@H](NC(=O)c1ncnc(N)c1Cl)c1ncc(C(=O)Nc2cc(C(F)(F)F)c(Cl)cn2)s1 + CC(Nc1ncnc2nc[nH]c12)c1cc2cccc(Cl)c2c(=O)n1-c1ccccc1
IC50 [3]: > 10 µM | IC50 [4]: > 10 µM | IC50 [5]: > 10 µM | IC50 [6]: > 10 µM | IC50 [31]: > 10 µM | IC50 [32]: > 10 µM | viability, T/C [15]: 98% | viability, T/C [16]: 87.3% | viability, T/C [17]: 95.9% | viability, T/C [18]: 101% | viability, T/C [33]: 104% | viability, T/C [34]: 105% | viability, T/C [19]: 106% | viability, T/C [20]: 109% | viability, T/C [21]: 97.7% | viability, T/C [22]: 96.5% | viability, T/C [35]: 94.7% | viability, T/C [36]: 103% | viability, T/C [23]: 95.7% | viability, T/C [24]: 115% | viability, T/C [25]: 108% | viability, T/C [26]: 103% | viability, T/C [37]: 98.7% | viability, T/C [38]: 96.6% | viability, T/C [27]: 101% | viability, T/C [28]: 101% | viability, T/C [29]: 103% | viability, T/C [30]: 96.2% | viability, T/C [39]: 102% | viability, T/C [40]: 86.5% | viability, T/C [41]: 104% | viability, T/C [42]: 105% | viability, T/C [43]: 92.7% | viability, T/C [44]: 106% | viability, T/C [45]: 96.4% | viability, T/C [46]: 96% | viability, T/C [47]: 101% | viability, T/C [48]: 99.7% | viability, T/C [49]: 92.5% | viability, T/C [50]: 108% | viability, T/C [51]: 98.8% | viability, T/C [52]: 93.3%

CC1(C)CCC(CN2CCN(c3ccc(C(=O)NS(=O)(=O)c4ccc(NCC5CCOCC5)c([N+](=O)[O-])c4)c(Oc4cnc5[nH]ccc5c4)c3)CC2)=C(c2ccc(Cl)cc2)C1 + Cc1nc(NC(=O)N2CCCC2C(N)=O)sc1-c1ccnc(C(C)(C)C(F)(F)F)c1
IC50 [3]: 6.84 µM | IC50 [4]: 6.42 µM | IC50 [5]: 6.58 µM | IC50 [6]: 6.68 µM | IC50 [31]: 6.32 µM | IC50 [32]: 4.27 µM | viability, T/C [15]: 95.4% | viability, T/C [16]: 109% | viability, T/C [17]: 97.5% | viability, T/C [18]: 120% | viability, T/C [33]: 125% | viability, T/C [34]: 20.8% | viability, T/C [19]: 100% | viability, T/C [20]: 108% | viability, T/C [21]: 101% | viability, T/C [22]: 117% | viability, T/C [35]: 123% | viability, T/C [36]: 12.5% | viability, T/C [23]: 107% | viability, T/C [24]: 112% | viability, T/C [25]: 113% | viability, T/C [26]: 120% | viability, T/C [37]: 130% | viability, T/C [38]: 12.2% | viability, T/C [27]: 117% | viability, T/C [28]: 115% | viability, T/C [29]: 106% | viability, T/C [30]: 113% | viability, T/C [39]: 114% | viability, T/C [40]: 15.8% | viability, T/C [41]: 116% | viability, T/C [42]: 101% | viability, T/C [43]: 101% | viability, T/C [44]: 122% | viability, T/C [45]: 104% | viability, T/C [46]: 14.5% | viability, T/C [47]: 70.7% | viability, T/C [48]: 59% | viability, T/C [49]: 63.8% | viability, T/C [50]: 68.4% | viability, T/C [51]: 63.3% | viability, T/C [52]: 12.1%

CC1(C)CCC(CN2CCN(c3ccc(C(=O)NS(=O)(=O)c4ccc(NCC5CCOCC5)c([N+](=O)[O-])c4)c(Oc4cnc5[nH]ccc5c4)c3)CC2)=C(c2ccc(Cl)cc2)C1 + CC(Nc1ccc2c(c1)OCCn1cc(N3C(=O)OCC3C(F)F)nc1-2)C(N)=O
IC50 [1]: > 10 µM | IC50 [2]: > 10 µM | IC50 [3]: > 10 µM | IC50 [4]: > 10 µM | IC50 [5]: > 10 µM | IC50 [6]: > 10 µM | viability, T/C [7]: 96.8% | viability, T/C [8]: 112% | viability, T/C [9]: 102% | viability, T/C [10]: 114% | viability, T/C (second compound 0.00316 µM, first compound 3.16 µM): 131% | viability, T/C (second compound 0.00316 µM, first compound 10 µM): 52.9% | viability, T/C [11]: 97.7% | viability, T/C [12]: 125% | viability, T/C [13]: 94% | viability, T/C [14]: 114% | viability, T/C (second compound 0.01 µM, first compound 3.16 µM): 132% | viability, T/C (second compound 0.01 µM, first compound 10 µM): 63.2% | viability, T/C [15]: 121% | viability, T/C [16]: 101% | viability, T/C [17]: 112% | viability, T/C [18]: 121% | viability, T/C [33]: 125% | viability, T/C [34]: 63.2% | viability, T/C [19]: 121% | viability, T/C [20]: 114% | viability, T/C [21]: 105% | viability, T/C [22]: 126% | viability, T/C [35]: 125% | viability, T/C [36]: 65.5% | viability, T/C [23]: 107% | viability, T/C [24]: 103% | viability, T/C [25]: 102% | viability, T/C [26]: 113% | viability, T/C [37]: 120% | viability, T/C [38]: 73.2% | viability, T/C [27]: 79.2% | viability, T/C [28]: 68% | viability, T/C [29]: 80% | viability, T/C [30]: 79.2% | viability, T/C [39]: 81.1% | viability, T/C [40]: 53.9%

CC1(C)CCC(Nc2ncc(C(F)(F)F)c(-c3c[nH]c4c(P(C)(C)=O)c(C#N)ccc34)n2)CN1 (stereo not drawn)
viability, T/C (compound 0.0316 µM): 79.6% [middle of 4 runs] | viability, T/C (compound 10 µM): 12.7% [middle of 4 runs] | IC50 (curve of compound): 5.16 µM [middle of 4 runs]
